{
  "source": "patent US20080118589A1",
  "about": "“Pharmaceutical formulations of rhodiola crenulata and methods of use thereof” (priority 2005, published 2008)",
  "key": {"MDA-MB-231 Cells [1]": {"test_system": "MDA-MB-231 Cells", "test": "MTS assay, growth arrest by retinoids +/-Rhodiola", "format": "cell-based, human", "settings": "for chemosensitivity (MTS assay): retinoid with Rhodiola, data not shown", "experimental": "Rhodiola crenulata extracts were administered to MDA-MB-231 cells in the presence or absence of either 1 μM or 10 μM all trans retinoic acid (ATRA), and cell viability/cytotoxicity was monitored using the MTS assay, as described above, and monitored for absorbance at 490 nm as indicative of chemosensitivity/resistance to the ATRA administered."}, "MDA-MB-231 Cells [2]": {"test_system": "MDA-MB-231 Cells", "test": "Death time course with Tamoxifen, Rhodiola, or both", "format": "cell-based, human", "source_text": "FIG. 8 is a graph showing a Death Time Course of MDA-MB-231 Cells treated with Tamoxifen, Rhodiola, or Tamoxifen plus Rhodiola.\nFIG. 8 is similar to FIG. 7, but this experiment involved a time course of MDA-MB-231 Cells treated with Tamoxifen or Rhodiola alone, or Tamoxifen and Rhodiola together."}, "[3]": {"biological_target": "T1, telomerase activity in MDA-MB-231 breast cancer cells (Homo sapiens, UniProt O14746)", "T1 construct": "telomerase activity in human MDA-MB-231 breast cancer cells; endogenous in cells; host or cells: MDA-MB-231", "T1 sequence (O14746 whole entry)": "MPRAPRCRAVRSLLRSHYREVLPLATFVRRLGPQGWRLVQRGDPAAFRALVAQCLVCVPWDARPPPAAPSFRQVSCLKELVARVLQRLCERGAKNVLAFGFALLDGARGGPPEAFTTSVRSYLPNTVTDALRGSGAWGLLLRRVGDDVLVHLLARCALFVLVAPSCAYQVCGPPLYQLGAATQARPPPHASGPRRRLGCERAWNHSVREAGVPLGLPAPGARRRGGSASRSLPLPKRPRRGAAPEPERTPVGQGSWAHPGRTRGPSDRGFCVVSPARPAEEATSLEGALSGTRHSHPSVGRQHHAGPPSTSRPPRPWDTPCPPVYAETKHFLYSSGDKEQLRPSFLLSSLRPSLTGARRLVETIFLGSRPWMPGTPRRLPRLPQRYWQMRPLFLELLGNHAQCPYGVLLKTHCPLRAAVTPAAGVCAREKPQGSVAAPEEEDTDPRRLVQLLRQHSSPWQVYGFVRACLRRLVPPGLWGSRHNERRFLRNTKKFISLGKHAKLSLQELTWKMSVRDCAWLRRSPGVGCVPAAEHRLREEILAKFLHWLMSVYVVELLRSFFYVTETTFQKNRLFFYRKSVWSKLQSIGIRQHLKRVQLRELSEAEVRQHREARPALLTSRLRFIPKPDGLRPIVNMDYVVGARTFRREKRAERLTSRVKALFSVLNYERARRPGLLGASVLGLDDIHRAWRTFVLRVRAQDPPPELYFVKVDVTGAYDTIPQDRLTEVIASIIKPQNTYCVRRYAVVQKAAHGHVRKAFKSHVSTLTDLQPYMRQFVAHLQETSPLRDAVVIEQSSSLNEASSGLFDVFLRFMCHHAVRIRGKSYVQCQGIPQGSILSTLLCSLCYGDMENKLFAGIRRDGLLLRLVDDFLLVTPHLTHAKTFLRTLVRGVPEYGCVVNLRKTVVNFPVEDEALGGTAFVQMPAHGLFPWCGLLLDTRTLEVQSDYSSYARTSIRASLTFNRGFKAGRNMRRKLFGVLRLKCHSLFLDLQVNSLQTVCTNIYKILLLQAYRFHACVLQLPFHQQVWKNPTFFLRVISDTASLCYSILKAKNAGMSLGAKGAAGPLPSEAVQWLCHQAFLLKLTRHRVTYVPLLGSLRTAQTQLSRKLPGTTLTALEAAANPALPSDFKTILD", "test": "Telomerase activity (qPCR)", "format": "cell-based", "settings": "Rhodiola crenulata 100 μg/mL, tamoxifen 10 μM", "experimental": "FIGS. 16 and 17 show the effect of Rhodiola crenulata (100 μg/mL) and tamoxifen (10 μM) on telomerase activity in human MDA-MB-231 breast cancer cells at 24 hr and 72 hr, respectively.\nThe breast cancer cell lines MDA-MB-231, V14, 76N tert (an immortalized epithelial breast cancer cell line), and 76N p53 239 (immortalized by presence of a dominant negative p53 gene) were treated as indicated above for 24 hours at 100 μg/mL Rhodiola crenulata."}},
  "data": [
    {"smiles": "CC1=C(/C=C/C(C)=C\\C=C\\C(C)=C\\C(=O)O)C(C)(C)CCC1", "note": "[9-cis retinoic acid]", "values": [
      {"measurement": "chemosensitivity (MTS assay)", "setting": "MDA-MB-231 Cells [1]", "value": "Comparable effects"}
    ]},
    {"smiles": "CC1=C(/C=C/C(C)=C/C=C/C(C)=C/C(=O)O)C(C)(C)CCC1", "note": "[ATRA, all trans retinoic acid]", "values": [
      {"measurement": "chemosensitivity (MTS assay, absorbance at 490 nm)", "setting": "MDA-MB-231 Cells [1]; 1 μM or 10 μM ATRA, absence of Rhodiola crenulata", "value": "little difference in chemosensitivity"}
    ]},
    {"smiles": "CC1=C(/C=C/C(C)=C/C=C/C(C)=C/C(=O)Nc2ccc(O)cc2)C(C)(C)CCC1", "note": "[HPR, N-(4-hydroxyphenyl) retinamide]", "values": [
      {"measurement": "chemosensitivity (MTS assay)", "setting": "MDA-MB-231 Cells [1]", "value": "Comparable effects"}
    ]},
    {"smiles": "CC/C(=C(\\c1ccccc1)c1ccc(OCCN(C)C)cc1)c1ccccc1", "note": "[Tamoxifen, tamoxifen]", "values": [
      {"measurement": "percentage of cell death", "setting": "MDA-MB-231 Cells [2]; 24 hours", "value": "increased the percentage of cell death"},
      {"measurement": "percentage of cell death", "setting": "MDA-MB-231 Cells [2]; 48 hours", "value": "increased the percentage of cell death"},
      {"measurement": "telomerase activity", "setting": "[3]; 24 hr", "value": "inhibited telomerase activity"},
      {"measurement": "telomerase activity", "setting": "[3]; 72 hr", "value": "telomerase activity is starting to return"}
    ]}
  ]
}
